Data published in paper PMC11969438 (Inorganic Chemistry Frontiers, 2025).
“Also recorded” adds a separate entry of the source.

Columns and labels:
[1] = system: THP1-Dual, HCT116, HCT116/OxR and CT-26 cells; assay: MTT-based cell viability assay, 72 h, statements over all investigated cell lines; design: species or system human and murine
Protocol: Cell models were seeded (2–2.5 × 10^3 cells per well) in 96-well plates. After 24 h of recovery, the compounds were applied at the concentrations indicated in triplicate. Cell viability was determined after 72 h of continuous drug incubation using an MTT-based cell viability assay (EZ4U, Biomedica, Vienna, Austria) according to the manufacturer's recommendations. Absorbance was measured at 450 nm (vs. 620 nm as reference) using a multimode microplate reader (Tecan Spark, Zurich, Switzerland). Half-maximal inhibitory concentrations (IC50 values) were derived via interpolation from dose–response curves, modeled with the four-parameter logistic (4PL) nonlinear regression model in GraphPad Prism (La Jolla, CA, USA) from at least three independent experiments.

THP1-Dual cells [2] = assay: Western blot analysis of STING downstream pathway, DNA damage and cell death markers; format: cell-based, human; conditions: 24 h
Protocol: The THP1-Dual cell model was seeded at 1 × 10^6 cells per well in six-well plates. After 24 h of recovery, the compounds were applied at the concentrations indicated. After 24 h of drug exposure, whole-cell protein isolation was performed as described previously.[14] Sodium dodecyl sulfate polyacrylamide gel electrophoresis was performed. Proteins were transferred onto polyvinylidene difluoride membranes (Thermo Scientific, Waltham, MA, USA). Antibodies targeting STING (##13 647; 1 : 1000), phospho-STING (#19 781; 1 : 500), TBK1 (#3504; 1 : 500), IRF-3 (#4302; 1 : 500), phospho-p65 (#3033; 1 : 500), ISG15 (#2743; 1 : 1000), caspase-3 (#9665; 1 : 1000), cleaved caspase-3 (#9661; 1 : 1000), PARP (#9532; 1 : 1000), and cleaved PARP (#9541; 1 : 1000) were purchased from Cell Signaling Technology (Danvers, MA, USA). The p65 antibody (#sc-372; 1 : 1000) was purchased from Santa Cruz and the phospho-H2A.X antibody (#05-636-I; 1 : 500) was obtained from Merck (Darmstadt, Germany). The anti-β-actin (#5441; 1 : 2000) antibody was obtained from Sigma-Aldrich. The anti-mouse IgG (#A0168; 1 : 10 000) horseradish peroxidase (HRP)-coupled secondary antibody was purchased from Sigma-Aldrich, and the anti-rabbit IgG (#7074; 1 : 5000) HRP-linked secondary antibody was obtained from Cell Signaling Technology.

THP1-Dual cells [3] = assay: Quantitative RT-PCR of target genes downstream of STING; format: cell-based, human; conditions: 24 h, prodrugs 100 μM, MSA-2 25 μM
Protocol: The THP1-Dual cell model was seeded at 1 × 10^6 cells per well in six-well plates. After 24 h of recovery, the compounds were applied at the concentrations indicated. After 24 h of drug exposure, total RNA was isolated using TRIzol reagent (Thermo Fisher Scientific, MA, USA), as described previously.[12] RNA was reverse transcribed into cDNA using RevertAid Reverse Transcriptase (Thermo Fisher Scientific). Real-time PCR was performed using the GoTaq® RT-qPCR system (Promega) with a CFX96 Touch Real-Time PCR Detection System (Bio-Rad Laboratories). Relative mRNA levels were quantified using the 2^−ddCT method.[54] RPL41 was used as a housekeeping gene. Human-specific primers were purchased from Eurofins Genomics (Ebersberg, Germany) with the following sequences: RPL41: fwd (5′-[…]-3′), rev (5′-[…]-3′); IFNB1: fwd (5′-CTTGGATTCCTACAAAGAAGCAGC-3′), rev (5′-[…]-3′); ISG15: fwd (5′-[…]-3′), rev (5′-[…]-3′); IFIT1: fwd (5′-[…]-3′), rev (5′-[…]-3′); CXCL10: fwd (5′-[…]-3′), rev (5′-[…]-3′); and CCL5: fwd (5′-[…]-3′), rev (5′-[…]-3′).

THP1-Dual cells [4] = assay: Cytokine and chemokine secretion in cell culture supernatant, Luminex; format: cell-based, human; conditions: 24 h
Protocol: Quantification of secreted protein targets in either cell culture SN or in plasma of treated animals was performed using a ProcartaPlex (96-well) multiplex assay panel (Thermo Fisher Scientific) in the xMAP detection platform (Luminex). For the in vitro detection of secreted proteins, THP1-Dual cells were seeded at 1 × 10^5 cells per well in 96-well plates in RPMI-1640 medium, supplemented with 10% FCS, L-glutamine and Pen-Strep. After 24 h of recovery, the compounds were applied at the concentrations indicated in triplicate.
After 24 h of drug incubation, the cell culture SN of technical triplicate was collected, pooled, centrifuged (400g, 10 min, 4 °C), transferred into a fresh tube, and stored at −20 °C.
Next, the ProcartaPlex (96-well) multiplex assay panel was performed according to the manufacturer's recommendations. In brief, the capture bead mix was incubated with test samples (undiluted SN or mouse plasma) or standard mix overnight. The SN of three independent experiments or the plasma of four animals per treatment group was loaded onto the multiplex assay plate. Next, biotinylated detection antibody mix and Streptavidin-PE were added to the plate. Following the recommended washing steps, the samples were incubated in a reading buffer and were measured using a Luminex xMAP platform (Bio-Plex MAGPIX Multiplex Reader; Bio-Rad Laboratories) and analyzed using xPONENT software.

CT-26 tumors = assay: Anticancer efficacy in vivo, syngeneic colorectal carcinoma; design: species or system BALB/c mice
Protocol: Tumor size was determined daily via manual caliper measurement. […] Animals were euthanized via cervical dislocation.

COCCOCCOCCOCCNC(=O)[O][Pt-2]12([O]C(=O)CCC(=O)c3cc4cc(OC)c(OC)cc4s3)([NH2+][C@@H]3CCCC[C@H]3[NH2+]1)[O]C(=O)C(=O)[O]2 [Ox-MSA-PEG-Ca, (OC-6-34)-[(1R,2R)-1,2-cyclohexanediamino]-oxalato-[4-(5,6-dimethoxybenzo[b]thiophen-2-yl)-4-oxobutylcarboxylato]-[3,6,9,12-tetraoxatridecan-1-amino]platinum(IV)]
IC50 ratio prodrug vs free oxaliplatin, maximum over cell models [1]: ≤ 40 fold
DNA damage (p-H2A.X upregulation, cleavage of caspase-3 and PARP) (THP1-Dual cells [2]): induced DNA damage
induction of ISG15 (THP1-Dual cells [2]): triggered
mRNA induction of immune response genes (IFN-β, ISG15, IFIT1, CXCL10, CCL5) (THP1-Dual cells [3]): distinctly raised transcript levels to a comparable extent as free MSA-2
secretion of cytokines and chemokines (THP1-Dual cells [4]; prodrug 100 μM, MSA-2 25 μM): induced distinct secretion of cytokines and chemokines
tumor volume (CT-26 tumors; peritumoral (p.t.) application, identical doses as i.v.): robust and significant decrease in the tumor volume; also recorded: distinct anticancer activity

COCCOCCOCCOCCC(=O)[O][Pt-2]12([O]C(=O)CCC(=O)c3cc4cc(OC)c(OC)cc4s3)([NH2+][C@@H]3CCCC[C@H]3[NH2+]1)[O]C(=O)C(=O)[O]2 [Ox-MSA-PEG-Es, (OC-6-44)-[(1R,2R)-1,2-cyclohexanediamino]-oxalato-[4-(5,6-dimethoxybenzo[b]thiophen-2-yl)-4-oxobutylcarboxylato]-[2,5,8,11-tetraoxatetradecanoato]platinum(IV)]
IC50 ratio prodrug vs free oxaliplatin, maximum over cell models [1]: ≤ 40 fold
DNA damage (p-H2A.X upregulation, cleavage of caspase-3 and PARP) (THP1-Dual cells [2]): induced DNA damage
mRNA induction of immune response genes (IFN-β, ISG15, IFIT1, CXCL10, CCL5) (THP1-Dual cells [3]): low propensity

O=C1[O][Pt]2([NH][C@@H]3CCCC[C@H]3[NH]2)[O]C1=O [oxaliplatin, reference compound]
TNF-α and IFN-γ secretion (THP1-Dual cells [4]; oxaliplatin 5 μM): activated predominantly by oxaliplatin
tumor growth (CT-26 tumors; i.v. twice a week for two weeks, equimolar to 9 mg kg^−1 oxaliplatin): clearly reduced tumor growth
